Several values for one entry are separate records, joined by “and”; a condition that tells them apart may be missing. Equal entries are not always repeated.
Assays:
[1] = test system: U-87MG glioblastoma cells; experiment: Cytotoxicity, SRB end-point assay, dark or green light; conditions: read-out: EC50,D, kept in the dark, 24 h + 48 h incubation, normoxic (21% O2)
U-87MG cells [2] = experiment: Ru cellular uptake by ICP-MS; type: in vitro ADME; conditions: 10 μM; for Ru cellular uptake: dark
Excerpt: The cellular accumulation of Ru^2+ can provide additional information about how differences in anticancer efficacy may relate to the amount of the Ru prodrug in the cell before light activation. For instance, low uptake often leads to limited cytotoxicity due to limited access to the drug target. […] Similar results have been observed in A549 lung cancer cells previously.[56] […] For unknown reasons, it appears that the amine bridge in the i-diqa ligand facilitates the uptake of ruthenium compound [3](PF6)2.
Materials: 65% nitric acid (Suprapur, Merck) was used in the sample digestion process, while diluted 1% nitric acid (v/v) was employed as a carrying solution throughout the ICP measurements. For preparation of calibration and internal standards, National Institute of Standards and Technology (NIST)-traceable 1000 mg/L elemental standards were used (TraceCERT, Fluka). Approximately 18 MΩ cm^–1 water (Milli-Q) was employed in all sample preparation and analysis steps.
Instrumentation: Calibration standards were prepared in a Secuflow fume hood (SCALA) to prevent contamination by atmospheric particulates. The standard samples and measurement samples were analyzed for trace elements using the NexION 2000 (PerkinElmer) ICP-MS instrument equipped with a concentric glass nebulizer and a Peltier-cooled glass spray chamber. An SC2 DX autosampler (PerkinElmer) was connected to ICP-MS for sample introduction. Syngistix software for ICP-MS (v.2.5, PerkinElmer) was used for all data recording and processing. Five trace elemental calibration standards for ICP-MS analysis were prepared using NIST-traceable 1000 mg/L Ru standards: 0, 1, 5, 20, and 100 μg/L. Samples were analyzed without dilution in the original delivery containers to minimize the possibility of contamination. Here, 10 μg/L Rh and In were used as internal standards. To check the calibration, samples were analyzed with a blank measurement and a repeat measurement with one of the calibration standards.
Sample preparation: 1 mL of U-87MG cells were seeded in 12-well plates (Greiner, No. 665180; 400.000 cells per well). […] Afterward, the cells were trypsined, collected, and centrifuged. The resulting cell pellet was dissolved in 1 mL of PBS and counted via a BioRad TC20 automated cell counter. Afterward, the solution was centrifuged and washed again with PBS with subsequent centrifuging. This washing step was repeated twice. The resulting cell pellet was digested in 0.5 mL of 65% HNO3 overnight in a hot oven (90 °C). The solution was diluted with Milli-Q water to 10 mL, and the Ru content [ppb] was measured by ICP-MS.

SH-SY5Y cells [3] = experiment: Cytotoxicity, SRB end-point assay, dark or green light; type: cell-based; conditions: for EC50: kept in the dark, SRB, normoxic (21% O2)
U-87MG cells [4] = experiment: Cell fractioning (FractionPREP kit), Ru content by ICP-MS; type: in vitro ADME; conditions: 10 μM, 24 h
Description: Ru content in different compartments was determined via a FractionPREP Cell Fractionation Kit (Abcam, Cambridge, U.K., no 288085). U-87MG cells were seeded in 25 cm^2 OptiMEM medium (1.5 × 10^6 cells) for 24 h. […] Untreated cells served as control. After 24 h of incubation, the cells were collected, counted, and fractioned according to the manufacturer’s procedure. In short, the cells were collected and centrifuged at 700g for 5 min. The cells were then washed with ice-cold PBS (1 mL) followed by 5 min centrifuging at 700g, and the supernatant was removed. The cell pellet was resuspended in 1 mL of ice-cold PBS, transferred into a 1.5 mL Eppendorf tube, and spun for 5 min at 700g, and the supernatant was removed. The pellet was resuspended in 400 μL of Extraction Buffer III/Cytosol Extraction Buffer Mix [containing 2 μL of dithiothreitol (DTT) and 2 μL of protease inhibitor cocktail per mL]. The cells were mixed well by carefully pipetting up and down (ca. 5 times). The sample was incubated on ice for 20 min with gentle tapping three to four times every 5 min. Afterward, the sample was centrifuged at 700g for 10 min. The supernatant was collected (cytosolic fraction) and kept on ice. The resulting pellet was again resuspended in 400 μL of ice-cold Extraction Buffer IV/Membrane Extraction Buffer-A Mix (containing 2 μL of DTT and 2 μL of protease inhibitor cocktail per mL) and pipetted several times, and the sample was vortexed for 10–15 s to mix well. Then, 22 μL of Lysis Buffer/Membrane Extraction Buffer-B was added and vortexed for 5 s. The samples were incubated for 1 min on ice. Afterward, the sample was vortexed again for 5 s and centrifuged for 5 min at 1000g. The supernatant was immediately transferred to a clean, prechilled 1.5 mL tube and kept on ice (membrane fraction). The pellet was again resuspended in 200 μL of ice-cold Extraction Buffer V/Nuclear Extraction Buffer mix (containing 2 μL of DTT and 2 μL of protease inhibitor cocktail per mL), vortexed for 15 s, and kept on ice for 40 min with constant vortex for 15 s every 10 min. The sample was then microcentrifuged at top speed for 10 min. The resulting supernatant was transferred in a clean, prechilled 1.5 mL tube (nuclear fraction) and kept on ice. The remaining cytoskeletal fraction was dissolved in 100 μL of 0.2% SDS containing 10 mM DTT solution. All samples were digested over 65% HNO3 (0.5 mL) in an oven hot oven (90 °C). The solution was diluted with Milli-Q water to 10 mL, and the Ru content [ppb] was measured by ICP-MS.

SH-SY5Y cells [5] = experiment: Intracellular Ca content by ICP-MS, dark or green light; type: cell-based; conditions: for Ca uptake, Dark: kept in the dark
Description: Six hours after compound addition, the cells were irradiated with green light or kept in the dark. Intracellular Ca^2+ levels were then assessed by ICP-MS 24 h after light activation. The NMDA and α-amino-3-hydroxy-5-methyl-4-isoxazole propionic acid (AMPA) receptors being glutamate-gated cation channels allow for an increase of calcium permeability of the neuron membrane; we also used L-glutamic acid (GA, 10 μM), a known NMDA and AMPA activator, as positive control in this assay.
1 mL of SH-SY5Y cells were seeded in 12-well plates (Greiner, No. 665180; 500.000 cells per well). […] After an additional 24 h of incubation, the cells were trypsined, collected, and centrifuged. The resulting cell pellet was dissolved in 1 mL of PBS and counted via a BioRad TC20 automated cell counter. Afterward, the solution was centrifuged and washed again with PBS with subsequent centrifuging two more times. The resulting cell pellet was digested in 0.5 mL of HNO3 overnight in a hot oven (90 °C). The solution was diluted with Milli-Q water to 10 mL, and the Ru and Ca content [ppb] was measured via ICP-MS.

CSCCO.F[P-](F)(F)(F)(F)F.F[P-](F)(F)(F)(F)F.[Ru+2].c1ccc(-c2cccc(-c3ccccn3)n2)nc1.c1ccc2cc(-c3cc4ccccc4cn3)ncc2c1 [[2](PF6)2]
EC50 [1]: 19 µM and 19.4 µM
Uptake in % (U-87MG cells [2]; 6 h): 0.8% and 0.82%
Ru cellular uptake (U-87MG cells [2]; 6 h incubation): 0.5 ng Ru/mio. cells and 0.54 ± 0.08 ng Ru/mio. cells
Uptake in % (U-87MG cells [2]; 24 h): 1.5%
Ru cellular uptake (U-87MG cells [2]; 24 h incubation): 0.82 ± 0.09 ng Ru/mio. cells
concentration required to block cell growth (SH-SY5Y cells [3]; in the dark): > 40 µM
EC50 (SH-SY5Y cells [3]): > 100 µM
Ru content, Cytosol (U-87MG cells [4]): 0.18 ng Ru/mio. cells and 0.18 ± 0.06 ng Ru/mio. cells
Ru content, Membrane (U-87MG cells [4]): 0.83 ng Ru/mio. cells and 0.83± 0.57 ng Ru/mio. cells
Ru content, Nucleus (U-87MG cells [4]): 0.03 ± 0.03 ng Ru/mio. cells
Ca uptake, Dark (SH-SY5Y cells [5]; 20 μM): 279.12 ± 56 ng Ca/mio. cells and 279 ng Ca/mio. cells

CSCCO.F[P-](F)(F)(F)(F)F.F[P-](F)(F)(F)(F)F.[Ru+2].c1ccc(-c2cccc(-c3ccccn3)n2)nc1.c1ccc2cc(Nc3cc4ccccc4cn3)ncc2c1 [[3](PF6)2]
EC50 [1]: 37 µM
Uptake in % (U-87MG cells [2]; 6 h): 12.4%
Ru cellular uptake (U-87MG cells [2]; 6 h incubation): 2.1 ng Ru/mio. cells and 2.14 ± 0.49 ng Ru/mio. cells
Uptake in % (U-87MG cells [2]; 24 h): ~11.5%
Ru cellular uptake (U-87MG cells [2]; 24 h incubation): 1.98 ng Ru/mio. cells and 1.98 ± 0.33 ng Ru/mio. cells
EC50 (SH-SY5Y cells [3]): 34.2 µM
Ru content, Cytosol (U-87MG cells [4]): 0.07 ± 0.05 ng Ru/mio. cells
Ru content, Membrane (U-87MG cells [4]): 0.88 ng Ru/mio. cells and 0.88 ± 0.25 ng Ru/mio. cells
Ru content, Nucleus (U-87MG cells [4]): 0.17 ng Ru/mio. cells and 0.17 ± 0.06 ng Ru/mio. cells
increase of intracellular Ca^2+ content after light irradiation (SH-SY5Y cells [5]; 10 μM, green light versus dark): 3 fold
Ca uptake, Dark (SH-SY5Y cells [5]; 10 μM): 163.37 ± 93 ng Ca/mio. cells and 163 ng Ca/mio. cells

From PMC11833736 (ACS Pharmacology & Translational Science, 2025)
